Reference: patent US20220119354A1, “DIAMINO-SUBSTITUTED PYRIDINES AND PYRIMIDINES AS HERBICIDES” (FMC Corporation, priority 2019, published 2022)

Key:
Assay type in all cases: in vivo
[1] = test system: barnyardgrass (Echinochloa crus-galli); assay: Test A preemergence, barnyardgrass; conditions: 0 to 100 scale, 0 is no effect, 100 is complete control
Description: (§1) Seeds of plant species selected from barnyardgrass (Echinochloa crus-galli), kochia (Kochia scoparia), ragweed (common ragweed, Ambrosia elatior), ryegrass, Italian (Lolium multiflorum), foxtail, giant (Setaria faberii), foxtail, green (Setaria viridis), and pigweed (Amaranthus retroflexus) were planted into a blend of loam soil and sand and treated preemergence with a directed soil spray using test chemicals formulated in a non-phytotoxic solvent mixture which included a surfactant.
(§2) At the same time, plants selected from these weed species and also wheat (Triticum aestivum), corn (Zea mays), blackgrass (Alopecurus myosuroides), and galium (catchweed bedstraw, Galium aparine) were planted in pots containing the same blend of loam soil and sand and treated with postemergence applications of test chemicals formulated in the same manner. Plants ranged in height from 2 to 10 cm and were in the one- to two-leaf stage for the postemergence treatment. Treated plants and untreated controls were maintained in a greenhouse for approximately 10 d, after which time all treated plants were compared to untreated controls and visually evaluated for injury. Plant response ratings, summarized in Table A, are based on a 0 to 100 scale where 0 is no effect and 100 is complete control. A dash (-) response means no test result.

kochia (Kochia scoparia) [2] = assay: Test A preemergence, kochia; conditions: 0 to 100 scale, 0 is no effect, 100 is complete control
Description: as §1, §2

[3] = test system: ragweed (common ragweed, Ambrosia elatior); assay: Test A preemergence, ragweed; conditions: 0 to 100 scale, 0 is no effect, 100 is complete control
Description: as §1, §2

[4] = test system: ryegrass, Italian (Lolium multiflorum); assay: Test A preemergence, Italian ryegrass; conditions: 0 to 100 scale, 0 is no effect, 100 is complete control
Description: as §1, §2

[5] = test system: foxtail, giant (Setaria faberii); assay: Test A preemergence, giant foxtail; conditions: 0 to 100 scale, 0 is no effect, 100 is complete control
Description: as §1, §2

[6] = test system: pigweed (Amaranthus retroflexus); assay: Test A preemergence, pigweed; conditions: 0 to 100 scale, 0 is no effect, 100 is complete control
Description: as §1, §2

[7] = test system: barnyardgrass (Echinochloa crus-galli); assay: Test A postemergence, barnyardgrass; conditions: 0 to 100 scale; for Plant response rating, Barnyardgrass: 0 no effect, 100 complete control
Description: as §1, §2

kochia (Kochia scoparia) [8] = assay: Test A postemergence, kochia; conditions: 0 to 100 scale; for Plant response rating, Kochia: 0 no effect, 100 complete control
Description: as §1, §2

[9] = test system: ragweed (common ragweed, Ambrosia elatior); assay: Test A postemergence, ragweed; conditions: 0 to 100 scale; for Plant response rating, Ragweed: 0 no effect, 100 complete control
Description: as §1, §2

[10] = test system: ryegrass, Italian (Lolium multiflorum); assay: Test A postemergence, Italian ryegrass; conditions: 0 to 100 scale; for Plant response rating, Ryegrass, Italian: 0 no effect, 100 complete control
Description: as §1, §2

[11] = test system: foxtail, giant (Setaria faberii); assay: Test A postemergence, giant foxtail; conditions: 0 to 100 scale; for Plant response rating, Foxtail, Giant: 0 no effect, 100 complete control
Description: as §1, §2

[12] = test system: pigweed (Amaranthus retroflexus); assay: Test A postemergence, pigweed; conditions: 0 to 100 scale; for Plant response rating, Pigweed: 0 no effect, 100 complete control
Description: as §1, §2

[13] = test system: wheat (Triticum aestivum); assay: Test A postemergence, wheat; conditions: 0 to 100 scale; for Plant response rating, Wheat: 0 no effect, 100 complete control
Description: as §1, §2

corn (Zea mays) = assay: Test A postemergence, corn; conditions: 0 to 100 scale; for Plant response rating, Corn: 0 no effect, 100 complete control
Description: as §1, §2

[14] = test system: blackgrass (Alopecurus myosuroides); assay: Test A postemergence, blackgrass; conditions: 0 to 100 scale; for Plant response rating, Blackgrass: 0 no effect, 100 complete control
Description: as §1, §2

[15] = test system: galium (catchweed bedstraw, Galium aparine); assay: Test A postemergence, galium; conditions: 0 to 100 scale; for Plant response rating, Galium: 0 no effect, 100 complete control
Description: as §1, §2

[16] = 1000 g ai/ha, 0 is no effect, 100 is complete control

| SMILES | Barnyardgrass plant response rating ([1]; 125 g ai/ha) | Barnyardgrass plant response rating ([1]; 500 g ai/ha) | Kochia plant response rating (kochia (Kochia scoparia) [2]; 125 g ai/ha) | Kochia plant response rating (kochia (Kochia scoparia) [2]; 500 g ai/ha) | Ragweed plant response rating ([3]; 125 g ai/ha) | Ragweed plant response rating ([3]; 500 g ai/ha) | Ryegrass, Italian plant response rating ([4]; 125 g ai/ha) | Ryegrass, Italian plant response rating ([4]; 500 g ai/ha) | Foxtail, Giant plant response rating ([5]; 125 g ai/ha) | Foxtail, Giant plant response rating ([5]; 500 g ai/ha) | Pigweed plant response rating ([6]; 125 g ai/ha) | Pigweed plant response rating ([6]; 500 g ai/ha) | Plant response rating, Barnyardgrass ([7]; 125 g ai/ha) | Plant response rating, Barnyardgrass ([7]; 500 g ai/ha) | Plant response rating, Kochia (kochia (Kochia scoparia) [8]; 125 g ai/ha) | Plant response rating, Kochia (kochia (Kochia scoparia) [8]; 500 g ai/ha) | Plant response rating, Ragweed ([9]; 125 g ai/ha) | Plant response rating, Ragweed ([9]; 500 g ai/ha) | Plant response rating, Ryegrass, Italian ([10]; 125 g ai/ha) | Plant response rating, Ryegrass, Italian ([10]; 500 g ai/ha) | also measured |
| --- | --- | --- | --- | --- | --- | --- | --- | --- | --- | --- | --- | --- | --- | --- | --- | --- | --- | --- | --- | --- | --- |
| C[C@@H](Nc1nc(N)cc(C(F)(F)F)n1)c1cc2ccccc2s1 [Compound 97] | – | – | – | – | – | – | – | – | – | – | – | – | – | – | – | – | – | – | – | – | Barnyardgrass plant response rating ([1]; 1000 g ai/ha): 0; Kochia plant response rating (kochia (Kochia scoparia) [2]; 1000 g ai/ha): 0; Ragweed plant response rating ([3]; 1000 g ai/ha): 0; Ryegrass, Italian plant response rating ([4]; 1000 g ai/ha): 0; Foxtail, Giant plant response rating ([5]; 1000 g ai/ha): 0; Pigweed plant response rating ([6]; 1000 g ai/ha): 0; Barnyardgrass plant response rating [7, 16]: 0; Kochia plant response rating (kochia (Kochia scoparia) [8]; [16]): 20; Ragweed plant response rating [9, 16]: 0; Ryegrass, Italian plant response rating [10, 16]: 0; Foxtail, Giant plant response rating [11, 16]: 0; Pigweed plant response rating [12, 16]: 0; Wheat plant response rating [13, 16]: 0; Corn plant response rating (corn (Zea mays); [16]): 0; Blackgrass plant response rating [14, 16]: 0; Galium plant response rating [15, 16]: 20 |
| Cc1cccc2oc(C(C)Nc3ncc(C(F)(F)F)c(N)n3)cc12 (centres unmarked) [Compound 101] | 90 | 90 | 90 | 90 | 70 | 100 | 30 | 90 | 100 | 100 | 70 | 100 | 30 | 100 | 70 | 100 | 30 | 100 | 60 | 70 | Plant response rating, Foxtail, Giant ([11]; 125 g ai/ha): 10; Plant response rating, Foxtail, Giant ([11]; 500 g ai/ha): 100; Plant response rating, Pigweed ([12]; 125 g ai/ha): 100; Plant response rating, Pigweed ([12]; 500 g ai/ha): 100; Plant response rating, Wheat ([13]; 125 g ai/ha): 0; Plant response rating, Wheat ([13]; 500 g ai/ha): 40; Plant response rating, Corn (corn (Zea mays); 125 g ai/ha): 0; Plant response rating, Corn (corn (Zea mays); 500 g ai/ha): 40; Plant response rating, Blackgrass ([14]; 125 g ai/ha): 20; Plant response rating, Blackgrass ([14]; 500 g ai/ha): 70; Plant response rating, Galium ([15]; 125 g ai/ha): 80; Plant response rating, Galium ([15]; 500 g ai/ha): 90 |
| CC(Nc1ncc(C(F)(F)F)c(N)n1)c1cc2c(Br)cccc2o1 (centres unmarked) [Compound 102] | 30 | 80 | 70 | 90 | 50 | 80 | 30 | 60 | 80 | 100 | 100 | 100 | 10 | 70 | 70 | 90 | 30 | 100 | 0 | 30 | Plant response rating, Foxtail, Giant ([11]; 125 g ai/ha): 0; Plant response rating, Foxtail, Giant ([11]; 500 g ai/ha): 20; Plant response rating, Pigweed ([12]; 125 g ai/ha): 100; Plant response rating, Pigweed ([12]; 500 g ai/ha): 100; Plant response rating, Wheat ([13]; 125 g ai/ha): 0; Plant response rating, Wheat ([13]; 500 g ai/ha): 40; Plant response rating, Corn (corn (Zea mays); 125 g ai/ha): 0; Plant response rating, Corn (corn (Zea mays); 500 g ai/ha): 20; Plant response rating, Blackgrass ([14]; 125 g ai/ha): 0; Plant response rating, Blackgrass ([14]; 500 g ai/ha): 40; Plant response rating, Galium ([15]; 125 g ai/ha): 100; Plant response rating, Galium ([15]; 500 g ai/ha): 100 |
